US20250143306A1, “COMBINATION FOR IMPROVING PLANT GROWTH AND/OR YIELD, FORMULATION AND METHOD FOR INCREASING PLANT GROWTH, STRESS RESISTANCE, AND YIELDS, AND USE THEREOF” (INSTITUTE OF EXPERIMENTAL BOTANY CAS CR, V.V.I., priority 2022, published 2025)

Tests used:
[1] = test system: wheat (Triticum aestivum) cv. Balitus; test: Root and shoot dry weight and leaf nitrogen content of hydroponically grown wheat under optimal conditions (Example 1); type: in vivo
Procedure: To investigate the effect of the combinations on the weight parameters, the seeds of wheat (Triticum aestivum) cv. Balitus were sown in a hydroponic growing system (Araponics, Liege, Belgium) using Hoagland's solution (control). Twenty days after sowing, plants (except for control plants) were sprayed by aqueous solution of either MTU (10 μM) or by a nitrogen utilization enhancer alone or by a combination of MTU (10 μM) with the nitrogen utilization enhancer. The plants were grown in the Czech Republic in a glasshouse at 16-25° C. under natural and artificial light during the winter period. The root dry weight (RDW), shoot dry weight (SDW) and the nitrogen content in the leaves of at least 30 plants were measured 45 days after the plants had been sown. RDW and SDW were recorded after drying the plants at 70° C. for 2 days.

[2] = test system: wheat (Triticum aestivum) cv. Balitus; test: Root and shoot dry weight and total chlorophyll content of wheat under drought stress conditions (Example 2); type: in vivo
Procedure: To investigate the effect of the combinations on the weight parameters, and the total content of chlorophyll, seeds of wheat (Triticum aestivum) cv. Balitus were sown in a hydroponic growing system (Araponics, Liege, Belgium) using Hoagland's solution (control). Twenty days after sowing plants (except for control plants) were sprayed by either MTU (10 μM) or by nitrogen utilization enhancers alone or with a combination of MTU (10 μM) and nitrogen utilization enhancers. The plants were grown in a glasshouse at 20-28° C. under a combination of natural and artificial light. Since the treatment (20 days after sowing), the plants received low water doses. […] The root dry weight (RDW), shoot dry weight (SDW), and total chlorophyll content (TCC) of at least 25 plants were measured at the end of the experiment—45 days after the plants had been sown. RDW and SDW were recorded after drying the plants at 70° C. for 2 days. The chlorophyll content of each plant was measured by SPAD meter reading at the end of the experiment and TCC was calculated as SPAD value per SDW.

## NCCCC(=O)O [GABA, γ-aminobutyric acid]
[1]; concentration 200 mg/L
  Nitrogen content in the leaves: 4.82 weight %
  RDW % of control: +5.0%
  RDW (root dry weight): 0.84 g
  SDW % of control: +4.6%
  SDW (shoot dry weight): 1.59 g

## N[C@@H](CCC(=O)O)C(=O)O [Glutamic acid, glutamic acid]
[1]; concentration 100 mg/L
  RDW % of control: +6.3%
  RDW (root dry weight): 0.85 g
  SDW % of control: +2.0%
  SDW (shoot dry weight): 1.55 g
[1]; concentration 250 mg/L
  Nitrogen content in the leaves: 4.56 weight %
  RDW % of control: +15.0%
  RDW (root dry weight): 0.92 g
  SDW % of control: +3.9%
  SDW (shoot dry weight): 1.58 g
[2]; concentration 100 mg/L
  RDW % of control: +9.0%
  RDW (root dry weight): 0.73 g
  SDW % of control: +4.1%
  SDW (shoot dry weight): 1.27 g
[2]; concentration 250 mg/L
  RDW % of control: +19.4%
  RDW (root dry weight): 0.8 g
  SDW % of control: +3.3%
  SDW (shoot dry weight): 1.26 g

## poly-γ-(glutamic acid) [γ-PGA]
[1]; concentration 250 mg/L
  Nitrogen content in the leaves: 4.74 weight %
  RDW % of control: +5.0%
  RDW (root dry weight): 0.84 g
  SDW % of control: +6.6%
  SDW (shoot dry weight): 1.62 g
[2]; concentration 250 mg/L
  RDW % of control: +9.0%
  RDW (root dry weight): 0.73 g
  SDW % of control: +2.5%
  SDW (shoot dry weight): 1.25 g
  TCC % (total chlorophyll content): 112%

## NC(=O)CC[C@H](N)C(=O)O [glutamine]
[1]; concentration 100 mg/L
  RDW % of control: +10.0%
  RDW (root dry weight): 0.88 g
  SDW % of control: +5.3%
  SDW (shoot dry weight): 1.60 g
[1]; concentration 250 mg/L
  Nitrogen content in the leaves: 4.59 weight %
  RDW % of control: +12.5%
  RDW (root dry weight): 0.90 g
  SDW % of control: +6.6%
  SDW (shoot dry weight): 1.62 g
[2]; concentration 100 mg/L
  RDW % of control: +10.4%
  RDW (root dry weight): 0.74 g
  SDW % of control: +7.4%
  SDW (shoot dry weight): 1.31 g
[2]; concentration 250 mg/L
  RDW % of control: +16.4%
  RDW (root dry weight): 0.78 g
  SDW % of control: +11.5%
  SDW (shoot dry weight): 1.36 g

## OP(O)O [[PO3]^3−, phosphite]
[1]; concentration 600 mg/L
  Nitrogen content in the leaves: 4.81 weight %
  RDW % of control: +18.8%
  RDW (root dry weight): 0.95 g
  SDW % of control: +14.5%
  SDW (shoot dry weight): 1.74 g
[2]; concentration 600 mg/L
  RDW % of control: +16.4%
  RDW (root dry weight): 0.78 g
  SDW % of control: +8.2%
  SDW (shoot dry weight): 1.32 g
  TCC % (total chlorophyll content): 105%

## CC(=O)N1CSCC1C(=O)O (centres unmarked) [NATCA, N-acetyl thiazolidine 4-carboxylic acid]
[1]; concentration 100 mg/L
  Nitrogen content in the leaves: 4.77 weight %
  RDW % of control: +12.5%
  RDW (root dry weight): 0.9 g
  SDW % of control: +7.2%
  SDW (shoot dry weight): 1.63 g
[2]; concentration 100 mg/L
  RDW % of control: +11.9%
  RDW (root dry weight): 0.75 g
  SDW % of control: +9.8%
  SDW (shoot dry weight): 1.34 g

## NCC(=O)O [glycine]
[1]; concentration 100 mg/L
  RDW % of control: +5.0%
  RDW (root dry weight): 0.84 g
  SDW % of control: +5.9%
  SDW (shoot dry weight): 1.61 g
[1]; concentration 250 mg/L
  Nitrogen content in the leaves: 4.64 weight %
  RDW % of control: +7.5%
  RDW (root dry weight): 0.86 g
  SDW % of control: +8.6%
  SDW (shoot dry weight): 1.65 g
[2]; concentration 100 mg/L
  RDW % of control: +7.5%
  RDW (root dry weight): 0.72 g
  SDW % of control: +5.7%
  SDW (shoot dry weight): 1.29 g
[2]; concentration 250 mg/L
  RDW % of control: +13.4%
  RDW (root dry weight): 0.76 g
  SDW % of control: +11.5%
  SDW (shoot dry weight): 1.36 g

## CCCCCC(=O)OCCN(CC)CC [DA6, diethyl aminoethyl hexanoate]
[1]; concentration 25 mg/L
  Nitrogen content in the leaves: 4.53 weight %
  RDW % of control: +8.8%
  RDW (root dry weight): 0.87 g
  SDW % of control: +5.9%
  SDW (shoot dry weight): 1.61 g
[2]; concentration 20 mg/L
  RDW % of control: +13.4%
  RDW (root dry weight): 0.76 g
  SDW % of control: +6.6%
  SDW (shoot dry weight): 1.3 g
  TCC % (total chlorophyll content): 110%

## C[N+](C)(C)CC(=O)[O-] [Glycine betaine, glycine betaine]
[2]; concentration 5 g/L
  RDW % of control: +4.5%
  RDW (root dry weight): 0.70 g
  SDW % of control: +7.4%
  SDW (shoot dry weight): 1.31 g
  TCC % (total chlorophyll content): 110%

## N[C@@H](CC(=O)O)C(=O)O [Aspartic acid, aspartic acid]
[1]; concentration 250 mg/L
  Nitrogen content in the leaves: 4.53 weight %
  RDW % of control: +15.0%
  RDW (root dry weight): 0.92 g
  SDW % of control: −1.3%
  SDW (shoot dry weight): 1.50 g
[2]; concentration 250 mg/L
  RDW % of control: +14.9%
  RDW (root dry weight): 0.77 g
  SDW % of control: +3.3%
  SDW (shoot dry weight): 1.26 g

## O=C(O)CCC(=O)C(=O)O [2-oxoglutarate]
[1]; concentration 100 mg/L
  RDW % of control: +8.8%
  RDW (root dry weight): 0.87 g
  SDW % of control: +5.3%
  SDW (shoot dry weight): 1.60 g
[1]; concentration 250 mg/L
  Nitrogen content in the leaves: 4.67 weight %
  RDW % of control: +13.8%
  RDW (root dry weight): 0.91 g
  SDW % of control: +8.6%
  SDW (shoot dry weight): 1.65 g
[2]; concentration 100 mg/L
  RDW % of control: +11.9%
  RDW (root dry weight): 0.75 g
  SDW % of control: +10.7%
  SDW (shoot dry weight): 1.35 g
  TCC % (total chlorophyll content): 107%
[2]; concentration 250 mg/L
  RDW % of control: +16.4%
  RDW (root dry weight): 0.78 g
  SDW % of control: +14.8%
  SDW (shoot dry weight): 1.4 g
  TCC % (total chlorophyll content): 112%

## O=C(O)[C@@H]1CCCN1 [Proline, proline]
[1]; concentration 250 mg/L
  Nitrogen content in the leaves: 4.69 weight %
  RDW % of control: +7.5%
  RDW (root dry weight): 0.86 g
  SDW % of control: +3.3%
  SDW (shoot dry weight): 1.57 g
[2]; concentration 250 mg/L
  RDW % of control: +7.5%
  RDW (root dry weight): 0.72 g
  SDW % of control: +4.9%
  SDW (shoot dry weight): 1.28 g
